# Reference: ChEMBL document CHEMBL1201862, “PubChem BioAssay data set” (2004)
# Activity calls are given as the source filed them.
# How the values were obtained:
# [1] = A cytotoxicity screen of small molecule inhibitors of the PhoP region in Salmonella typhi identified in the primary screen. [Related pubchem assays: 1850, 1864, 1985 ]; assay type: functional
# [2] = target: T1, Short transient receptor potential channel 4 (Mus musculus, UniProt Q9QUQ5); test: block of DAMGO-driven TRPC4 calcium entry – cell-based, HEK293 TRPC4/mu-opioid, Fluo-4 calcium, dose response (AID 434942); assay type: functional;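 further: potency of inhibitors blocking the TRPC4 calcium response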
# T1 sequence (Q9QUQ5 whole entry): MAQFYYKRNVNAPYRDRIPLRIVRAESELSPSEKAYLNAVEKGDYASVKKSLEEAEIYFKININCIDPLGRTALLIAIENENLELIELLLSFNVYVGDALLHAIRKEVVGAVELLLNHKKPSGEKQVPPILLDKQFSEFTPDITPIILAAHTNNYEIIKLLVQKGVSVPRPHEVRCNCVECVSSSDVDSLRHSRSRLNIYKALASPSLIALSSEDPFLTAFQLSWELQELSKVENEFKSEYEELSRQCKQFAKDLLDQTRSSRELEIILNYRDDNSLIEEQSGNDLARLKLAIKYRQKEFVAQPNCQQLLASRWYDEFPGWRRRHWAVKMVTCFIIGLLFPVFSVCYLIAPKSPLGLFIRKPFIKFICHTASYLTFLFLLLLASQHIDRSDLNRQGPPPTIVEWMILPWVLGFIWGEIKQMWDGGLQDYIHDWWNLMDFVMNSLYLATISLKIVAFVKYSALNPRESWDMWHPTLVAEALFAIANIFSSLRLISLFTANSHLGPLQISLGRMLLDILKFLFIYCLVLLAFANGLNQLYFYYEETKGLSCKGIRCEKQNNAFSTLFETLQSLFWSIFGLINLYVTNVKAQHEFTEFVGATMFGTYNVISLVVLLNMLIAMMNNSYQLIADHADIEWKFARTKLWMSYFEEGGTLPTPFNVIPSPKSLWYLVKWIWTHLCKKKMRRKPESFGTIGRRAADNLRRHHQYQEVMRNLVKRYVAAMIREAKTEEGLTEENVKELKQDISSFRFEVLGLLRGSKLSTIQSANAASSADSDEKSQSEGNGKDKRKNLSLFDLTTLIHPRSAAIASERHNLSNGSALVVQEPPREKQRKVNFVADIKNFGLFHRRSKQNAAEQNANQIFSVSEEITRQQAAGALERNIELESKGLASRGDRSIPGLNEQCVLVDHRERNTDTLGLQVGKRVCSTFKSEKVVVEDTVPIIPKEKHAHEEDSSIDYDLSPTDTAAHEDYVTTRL
# [3] = A Cell Based Secondary Assay To Explore Cytotoxicity of Compounds that Sensitize Mycobacterium Tuberculosis to Beta-Lactam Antibiotics.; assay type: functional
# Estrogen receptor = target: T2, Estrogen receptor (Homo sapiens, UniProt P03372);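 further: potency for inhibiting coactivator peptide recruitment to the receptor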
# T2 sequence (P03372 whole entry): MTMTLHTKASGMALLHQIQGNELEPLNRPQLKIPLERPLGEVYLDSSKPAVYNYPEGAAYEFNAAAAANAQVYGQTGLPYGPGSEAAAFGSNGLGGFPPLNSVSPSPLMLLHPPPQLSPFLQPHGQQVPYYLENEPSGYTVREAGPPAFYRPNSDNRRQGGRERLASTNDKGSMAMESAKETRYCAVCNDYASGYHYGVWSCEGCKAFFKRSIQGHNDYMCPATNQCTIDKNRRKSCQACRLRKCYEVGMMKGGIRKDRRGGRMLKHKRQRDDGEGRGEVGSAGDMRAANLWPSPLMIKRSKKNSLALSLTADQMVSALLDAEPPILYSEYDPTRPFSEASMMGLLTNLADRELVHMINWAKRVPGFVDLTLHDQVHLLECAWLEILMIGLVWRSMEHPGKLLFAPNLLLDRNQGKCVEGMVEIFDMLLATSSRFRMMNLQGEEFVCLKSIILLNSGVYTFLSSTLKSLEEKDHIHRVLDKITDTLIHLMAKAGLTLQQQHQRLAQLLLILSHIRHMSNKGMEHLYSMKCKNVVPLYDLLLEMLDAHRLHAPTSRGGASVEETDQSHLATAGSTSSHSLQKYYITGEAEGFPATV
# fMet-Leu-Phe receptor = target: T3, fMet-Leu-Phe receptor (Homo sapiens, UniProt P21462); test: formyl peptide receptor binders – dose response (AID 519); assay type: functional
# T3 sequence (P21462 whole entry): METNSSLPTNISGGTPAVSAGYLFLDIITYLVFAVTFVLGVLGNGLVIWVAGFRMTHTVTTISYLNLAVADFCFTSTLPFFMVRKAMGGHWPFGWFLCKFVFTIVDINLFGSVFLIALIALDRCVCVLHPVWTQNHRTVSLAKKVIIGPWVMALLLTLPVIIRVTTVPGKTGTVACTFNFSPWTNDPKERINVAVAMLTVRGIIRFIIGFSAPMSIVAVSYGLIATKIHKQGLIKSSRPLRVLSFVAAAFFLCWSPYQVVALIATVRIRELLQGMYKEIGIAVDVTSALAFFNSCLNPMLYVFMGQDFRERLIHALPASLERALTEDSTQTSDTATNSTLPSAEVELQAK
# [4] = target: T4, Epstein-Barr nuclear antigen 1 (Epstein-Barr virus (strain B95-8) (HHV-4) (Human herpesvirus 4), UniProt P03211); test: inhibition of EBV nuclear antigen 1 DNA binding – biochemical, fluorescence polarization, 1536-well, dose response (AID 2381); set-up: species or system human gammaherpesvirus 4;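 further: fluorescence polarization of a Cy5 DNA probe bound by EBNA-1 protein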
# T4 sequence (P03211 whole entry): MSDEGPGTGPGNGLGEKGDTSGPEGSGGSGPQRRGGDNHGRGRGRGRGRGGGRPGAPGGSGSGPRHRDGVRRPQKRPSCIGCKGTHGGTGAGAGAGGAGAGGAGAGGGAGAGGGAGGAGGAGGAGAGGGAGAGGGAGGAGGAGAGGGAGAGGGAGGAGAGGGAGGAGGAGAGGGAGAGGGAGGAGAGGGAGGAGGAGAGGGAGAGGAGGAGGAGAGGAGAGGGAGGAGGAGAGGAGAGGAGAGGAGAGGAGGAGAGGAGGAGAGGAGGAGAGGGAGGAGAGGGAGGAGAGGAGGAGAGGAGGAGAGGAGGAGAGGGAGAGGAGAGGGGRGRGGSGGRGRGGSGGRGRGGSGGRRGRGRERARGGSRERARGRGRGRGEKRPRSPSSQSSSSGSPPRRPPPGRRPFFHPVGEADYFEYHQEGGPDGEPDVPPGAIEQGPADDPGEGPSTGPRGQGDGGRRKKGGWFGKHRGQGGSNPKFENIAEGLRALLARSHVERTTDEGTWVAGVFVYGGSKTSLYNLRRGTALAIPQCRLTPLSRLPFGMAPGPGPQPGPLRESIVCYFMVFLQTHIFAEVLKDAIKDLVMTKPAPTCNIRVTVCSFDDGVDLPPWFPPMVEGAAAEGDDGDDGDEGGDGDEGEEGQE
# [5] = target: T5, Lytic switch protein BZLF1 (Epstein-Barr virus (strain B95-8) (HHV-4) (Human herpesvirus 4), UniProt P03206); test: inhibition of BZLF1 ZTA DNA binding – biochemical, fluorescence polarization, Epstein-Barr virus, 1536-well, counter-screen for EBNA-1 inhibitor project, dose response (AID 2377); set-up: species or system human gammaherpesvirus 4;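 further: fluorescence polarization of Cy5-labelled ZRE DNA probe bound by purified Zta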
# T5 sequence (P03206 whole entry): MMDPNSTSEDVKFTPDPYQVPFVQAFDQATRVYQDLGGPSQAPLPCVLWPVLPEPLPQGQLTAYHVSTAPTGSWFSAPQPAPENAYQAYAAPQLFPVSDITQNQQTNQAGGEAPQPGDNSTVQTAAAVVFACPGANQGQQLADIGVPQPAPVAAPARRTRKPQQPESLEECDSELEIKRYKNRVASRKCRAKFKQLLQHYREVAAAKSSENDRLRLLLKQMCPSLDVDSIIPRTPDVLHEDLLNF
# [6] = Trypanosoma cruzi growth suppression in host cells – NIH3T3 host cells, beta-gal luminescence, confirmation (AID 2044); assay type: functional, cell-based;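 further: intracellular parasites grown in NIH/3T3 mouse fibroblasts as host cells; luminescent beta-galactosidase reporter signal from transgenic T. cruzi replicating inside host cells; inhibitors lower the luminescence signal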
# [7] = NIH3T3 cell viability loss – ATP luminescence, mouse fibroblasts, counter-screen, dose response (AID 2010); assay type: functional, cell-based;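 further: cells exposed to compound for about 90 hours before reading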
# [8] = target: Induced myeloid leukemia cell differentiation protein Mcl-1 (Homo sapiens, UniProt Q07820); assay type: functional
# Induced myeloid leukemia cell differentiation protein Mcl-1, sequence (Q07820 whole entry): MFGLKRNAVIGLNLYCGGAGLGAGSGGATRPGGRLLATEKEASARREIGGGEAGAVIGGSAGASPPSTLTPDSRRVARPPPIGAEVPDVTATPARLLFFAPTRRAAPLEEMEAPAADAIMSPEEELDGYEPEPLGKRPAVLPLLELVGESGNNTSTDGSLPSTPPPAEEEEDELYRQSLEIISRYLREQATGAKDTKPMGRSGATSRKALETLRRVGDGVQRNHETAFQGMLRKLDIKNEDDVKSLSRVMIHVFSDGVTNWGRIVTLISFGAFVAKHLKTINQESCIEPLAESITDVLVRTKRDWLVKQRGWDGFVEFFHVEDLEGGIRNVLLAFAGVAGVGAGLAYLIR
# [9] = target: T6, Voltage-gated N-type calcium channel alpha-1B subunit/Amyloid beta A4 precursor protein-binding family A member 1 (Homo sapiens, UniProt Q00975+Q02410); assay type: protein assay
# T6 sequence (Q00975 whole entry): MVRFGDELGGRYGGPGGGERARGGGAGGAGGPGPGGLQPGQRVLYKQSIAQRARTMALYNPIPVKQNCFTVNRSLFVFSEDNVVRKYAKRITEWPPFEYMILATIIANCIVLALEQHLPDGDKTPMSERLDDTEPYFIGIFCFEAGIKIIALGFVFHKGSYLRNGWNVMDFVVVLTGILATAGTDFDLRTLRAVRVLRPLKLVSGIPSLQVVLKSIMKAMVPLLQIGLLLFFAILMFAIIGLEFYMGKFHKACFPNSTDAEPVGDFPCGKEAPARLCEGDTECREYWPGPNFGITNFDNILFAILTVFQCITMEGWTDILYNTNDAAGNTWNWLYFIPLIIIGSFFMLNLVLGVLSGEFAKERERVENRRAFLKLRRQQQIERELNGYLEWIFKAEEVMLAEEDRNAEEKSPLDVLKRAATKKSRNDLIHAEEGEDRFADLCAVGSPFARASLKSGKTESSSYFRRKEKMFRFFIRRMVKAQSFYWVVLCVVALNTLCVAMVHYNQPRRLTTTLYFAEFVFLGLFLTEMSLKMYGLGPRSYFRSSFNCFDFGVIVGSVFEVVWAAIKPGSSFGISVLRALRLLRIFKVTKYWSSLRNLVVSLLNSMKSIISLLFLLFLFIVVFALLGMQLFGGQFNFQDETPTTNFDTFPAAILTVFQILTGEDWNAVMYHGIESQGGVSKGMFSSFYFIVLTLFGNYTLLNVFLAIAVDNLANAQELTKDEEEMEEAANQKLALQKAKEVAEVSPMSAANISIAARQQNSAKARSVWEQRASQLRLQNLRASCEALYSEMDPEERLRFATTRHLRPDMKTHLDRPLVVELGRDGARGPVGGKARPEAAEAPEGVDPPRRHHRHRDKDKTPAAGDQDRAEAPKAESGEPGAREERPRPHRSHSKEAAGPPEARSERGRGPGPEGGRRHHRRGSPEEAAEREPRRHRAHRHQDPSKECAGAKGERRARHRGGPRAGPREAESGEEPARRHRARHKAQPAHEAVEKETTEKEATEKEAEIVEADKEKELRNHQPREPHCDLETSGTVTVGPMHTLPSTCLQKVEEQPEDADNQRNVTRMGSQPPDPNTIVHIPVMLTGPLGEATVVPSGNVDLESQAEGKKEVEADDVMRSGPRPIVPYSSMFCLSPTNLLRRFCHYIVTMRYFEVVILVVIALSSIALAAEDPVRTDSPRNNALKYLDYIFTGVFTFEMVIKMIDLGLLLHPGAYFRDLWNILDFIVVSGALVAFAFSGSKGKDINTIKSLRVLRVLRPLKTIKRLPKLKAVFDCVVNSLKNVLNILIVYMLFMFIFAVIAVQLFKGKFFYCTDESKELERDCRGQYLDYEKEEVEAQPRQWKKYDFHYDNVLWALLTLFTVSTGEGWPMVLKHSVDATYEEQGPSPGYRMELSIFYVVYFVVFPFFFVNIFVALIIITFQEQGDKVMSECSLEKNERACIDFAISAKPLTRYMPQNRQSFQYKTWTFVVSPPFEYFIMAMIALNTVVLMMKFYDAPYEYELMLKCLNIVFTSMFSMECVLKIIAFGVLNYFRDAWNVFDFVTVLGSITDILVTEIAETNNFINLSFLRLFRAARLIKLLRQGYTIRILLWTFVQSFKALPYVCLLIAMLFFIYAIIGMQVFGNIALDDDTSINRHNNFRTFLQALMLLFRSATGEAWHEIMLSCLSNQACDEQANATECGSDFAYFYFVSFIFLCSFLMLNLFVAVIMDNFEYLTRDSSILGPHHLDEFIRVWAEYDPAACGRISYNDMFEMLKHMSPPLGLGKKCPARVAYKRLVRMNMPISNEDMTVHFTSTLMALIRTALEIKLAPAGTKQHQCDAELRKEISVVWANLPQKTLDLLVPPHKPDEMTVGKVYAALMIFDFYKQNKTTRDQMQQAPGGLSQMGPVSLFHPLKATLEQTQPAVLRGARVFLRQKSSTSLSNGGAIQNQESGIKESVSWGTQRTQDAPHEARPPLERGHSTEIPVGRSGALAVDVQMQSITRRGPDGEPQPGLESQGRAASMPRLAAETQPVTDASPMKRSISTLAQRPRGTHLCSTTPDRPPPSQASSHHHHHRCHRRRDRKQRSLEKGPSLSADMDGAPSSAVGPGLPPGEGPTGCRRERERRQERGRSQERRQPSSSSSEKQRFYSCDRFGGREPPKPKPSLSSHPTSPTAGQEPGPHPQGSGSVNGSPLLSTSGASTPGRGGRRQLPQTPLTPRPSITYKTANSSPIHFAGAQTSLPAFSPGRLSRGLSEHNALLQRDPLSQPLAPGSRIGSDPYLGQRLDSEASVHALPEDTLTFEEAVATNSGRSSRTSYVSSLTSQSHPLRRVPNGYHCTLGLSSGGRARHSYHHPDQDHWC
# T6 sequence (Q02410 whole entry): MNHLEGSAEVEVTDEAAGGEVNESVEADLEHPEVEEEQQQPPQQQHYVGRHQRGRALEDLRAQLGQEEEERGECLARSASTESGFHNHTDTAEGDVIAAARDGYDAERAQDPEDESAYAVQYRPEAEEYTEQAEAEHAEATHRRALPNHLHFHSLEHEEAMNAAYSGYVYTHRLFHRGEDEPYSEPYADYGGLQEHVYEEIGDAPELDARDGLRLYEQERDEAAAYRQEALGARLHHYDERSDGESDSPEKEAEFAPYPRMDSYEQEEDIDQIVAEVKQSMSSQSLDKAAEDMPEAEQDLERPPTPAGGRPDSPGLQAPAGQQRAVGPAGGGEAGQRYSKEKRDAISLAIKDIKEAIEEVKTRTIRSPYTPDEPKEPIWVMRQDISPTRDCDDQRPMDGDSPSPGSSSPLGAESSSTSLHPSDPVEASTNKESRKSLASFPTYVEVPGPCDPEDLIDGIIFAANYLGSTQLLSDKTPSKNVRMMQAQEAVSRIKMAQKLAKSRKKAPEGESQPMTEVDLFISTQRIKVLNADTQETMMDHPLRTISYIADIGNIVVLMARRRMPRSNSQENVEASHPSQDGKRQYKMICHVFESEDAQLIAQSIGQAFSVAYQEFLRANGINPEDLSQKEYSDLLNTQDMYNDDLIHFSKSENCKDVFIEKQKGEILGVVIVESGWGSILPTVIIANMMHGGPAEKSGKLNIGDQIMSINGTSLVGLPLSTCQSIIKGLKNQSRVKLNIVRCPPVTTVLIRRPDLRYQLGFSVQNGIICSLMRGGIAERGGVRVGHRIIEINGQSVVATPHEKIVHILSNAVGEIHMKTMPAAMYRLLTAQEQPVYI
# [10] = target: T6, Voltage-gated N-type calcium channel alpha-1B subunit/Amyloid beta A4 precursor protein-binding family A member 1; assay type: protein assay; remark: listed apart in the source
# [11] = target: Eukaryotic translation initiation factor 4E (Mus musculus, UniProt P63073); test: blockers of eIF4G binding by eIF4E – biochemical, TR-FRET, dose response (AID 855); assay type: functional;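 further: potency for disrupting eIF4E binding to eIF4GI seen as loss of FRET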
# Eukaryotic translation initiation factor 4E, sequence (P63073 whole entry): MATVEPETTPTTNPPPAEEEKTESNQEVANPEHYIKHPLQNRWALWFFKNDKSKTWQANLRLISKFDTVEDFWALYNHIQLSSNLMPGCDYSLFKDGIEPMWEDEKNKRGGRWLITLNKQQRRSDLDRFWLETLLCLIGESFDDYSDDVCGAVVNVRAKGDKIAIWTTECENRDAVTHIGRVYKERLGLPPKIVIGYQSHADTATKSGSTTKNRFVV
# H9c2 = test: cells; assay type: functional, cell-based; conditions: Rattus norvegicus, H9c2, Myocardium;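 further: confirmatory concentration-response retest of ultra-high-throughput screening hits for modulation of myocardial damage; cell death induced by hydrogen peroxide oxidative stress; compound pretreatment for 60 min then peroxide exposure for 2 h; potency is for protecting the cells against peroxide damage rather than for killing them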
# [12] = Luminescence Cell-Based Dose Confirmation HTS to Identify Activators of 5'UTR Stem-Loop Driven Alpha-Synuclein mRNA Translation in H4 Neuroglioblastoma Cells. [Related pubchem assays: 1829 (Project Summary), 1814 (Primary HTS)]; assay type: functional
# [13] = Luminescence Cell-Based Dose Response HTS to Identify Activators of Luciferase Translation or Activity in H4 […] Cells. [Related pubchem assays: 1829 (Project Summary), 1814 (Primary HTS)]; assay type: functional
# H4 = test: Luminescence Cell-Based Dose Response HTS to Identify Activators of 5'UTR Stem-Loop Driven Prion Protein mRNA Translation in H4 Neuroglioblastoma Cells. [Related pubchem assays: 1829 (Project Summary), 1814 (Primary HTS)]; assay type: functional; conditions: Homo sapiens
smiles,measurement,setting,value
CCCCn1cnc2cc(NCc3cccc(OC)c3O)ccc21,EC50,[1],> 50 µM (active)
COc1ccc(C2CC2/C(=N/O)c2ccccc2)cc1 (configuration not stated),EC50,[2],2.99 µM (active)
N#Cc1c(C(F)(F)F)cc(-c2ccccc2)nc1SCc1nc(N)nc(N2CCOCC2)n1,CC50,[3],> 40 µM (active)
same,IC50,Estrogen receptor,> 50 µM (not active)
same,Ki,fMet-Leu-Phe receptor,> 66.7 µM (inactive)
CC(=O)Nc1ccc(NC(=O)C(C)OC(=O)c2oc3ccccc3c2C)cc1 (configuration not stated),IC50,[4],9.16 µM (active)
same,IC50,[5],> 111 µM (not active)
Cc1ccc2[nH]c(O)c(N=Nc3nc4ccccc4s3)c2c1,CC50,[3],39.6 µM (active)
same,EC50,[6],3.38 µM (active)
same,EC50,[7],> 60 µM (not active)
same,IC50,[8],2.11 µM (active)
O=C(Nc1ccnn1C1CCN(CCCC2CCCC2)CC1)c1ccccc1Cl,EC50,[2],1.68 µM (active)
Cc1cccc(NC(=S)NC2CCCCC2)n1,IC50,[9],9.58 µM (active)
same,IC50,[10],> 50 µM (inactive)
COc1ccc(S(=O)(=O)N2CCC(C(=O)NCc3cccc(OC)c3)CC2)cc1,IC50,[11],> 64 µM (inactive)
C/C=C/C=C\C(=O)Nc1cccc(C2=NOC3(C2)C[C@H](C(N)=O)N(C(=O)/C=C/C)C3)c1 (some centres not stated),IC50,[9],9.88 µM (active)
same,IC50,[10],6.79 µM (active)
CSc1ccccc1NC(=O)c1ccccc1C,IC50,[11],50 µM (inactive)
COC/C=C/C1=CC2=CC(=O)C(C)(OC(=O)c3cnc4ccccc4n3)C(=O)C2=CN1c1ccc(CO)cc1 (configuration not stated),IC50,[9],10.4 µM (active)
same,IC50,[10],11.2 µM (active)
COc1ccc(CNC2=NC(=O)CC(C(=O)Nc3ccc(F)cc3)S2)cc1 (configuration not stated),IC50,[11],> 64 µM (inactive)
CC12CC3(C)CC(C)(C1)CC(NC(=O)N1CCCC1)(C2)C3,EC50,[2],7.5 µM (active)
COc1ccc(/C=C2\SC(=S)N(CC(=O)NNC(=O)c3ccncc3)C2=O)cc1,IC50,[9],> 56.8 µM (not active)
same,IC50,[10],> 50 µM (inactive)
COc1ccc(CCNC2CCCCC2)cc1,EC50,[1],> 50 µM (active)
C/C(=N\NC(=O)c1c(Br)c(C)nn1C)c1ccc(NC(=O)c2ccoc2C)cc1,EC50,[1],> 50 µM (active)
same,IC50,[4],15.7 µM (not active)
same,IC50,[5],> 111 µM (not active)
same,IC50,H9c2,> 79 µM (inactive)
COc1ccc(Sc2nc(-c3ccccc3)ncc2C(=O)O)cc1,EC50,[2],5.96 µM (active)
CCOc1cccc(NC(=O)Cn2nc(-c3ccc4c(c3)OCCO4)ccc2=O)c1,IC50,[4],13.7 µM (not active)
same,IC50,[5],> 111 µM (not active)
COc1ccc(-c2c/c(=N\c3ccc(C)cc3)c3ccccc3o2)cc1,CC50,[3],> 40 µM (active)
CCOC(=O)c1ccc(N2Cc3ccccc3/C2=N\C(=O)c2cccc([N+](=O)[O-])c2)cc1,EC50,[1],> 50 µM (active)
same,EC50,[12],39.1 µM (active)
same,EC50,[13],12.3 µM (active)
same,EC50,H4,6.09 µM (active)
